{"source": "patent US6469028B1", "about": "“Synthesis and use of retinoid compounds having negative hormone and/or anatgonist activities” (Allergan, Inc., priority 1995, dated 2002)", "key": {"RARγ [1]": {"target": "T1, RARγ (Homo sapiens, UniProt P13631)", "T1 sequence (P13631 1-454)": "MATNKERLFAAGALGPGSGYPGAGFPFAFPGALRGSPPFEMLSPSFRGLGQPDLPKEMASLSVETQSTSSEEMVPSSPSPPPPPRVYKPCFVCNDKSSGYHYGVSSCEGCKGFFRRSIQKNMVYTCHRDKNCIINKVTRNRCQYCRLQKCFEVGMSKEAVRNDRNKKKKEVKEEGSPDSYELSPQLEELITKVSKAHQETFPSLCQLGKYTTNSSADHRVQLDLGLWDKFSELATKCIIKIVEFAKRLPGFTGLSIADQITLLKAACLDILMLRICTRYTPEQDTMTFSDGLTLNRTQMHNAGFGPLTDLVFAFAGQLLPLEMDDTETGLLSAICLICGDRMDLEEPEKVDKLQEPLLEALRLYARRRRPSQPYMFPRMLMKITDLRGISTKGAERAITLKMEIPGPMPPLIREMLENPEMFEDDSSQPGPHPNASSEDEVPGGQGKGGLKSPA", "assay": "Example 7: inhibition of RAR transactivation by ATRA, CV-1 cells", "type": "cell-based", "settings": "equal doses of AGN 193109 and ATRA (10 nM ATRA)"}, "[2]": {"system": "1,25-dihydroxyvitamin D3-dependent gene expression", "assay": "Example 14: 1,25-dihydroxyvitamin D3 transactivation, MTV-VDRE-Luc in HeLa cells", "type": "cell-based", "settings": "AGN 193109 10-100 nM coadministered", "method": "Hela cells were transfected using the cationic liposome-mediated transfection procedure described by Feigner et al. in Proc. Natl. Acad. Sci. USA 84:7413 (1987). 5×10^4 cells were plated in 12-well multiwell plates and grown in DMEM supplemented with 10% FBS. Cells were cotransfected in serum-free medium using 2 μg/well of LIPOFECTAMINE reagent (Life Technologies, Inc.) with 0.7 μg of the reporter plasmid MTV-VDRE-Luc, containing two copies of the 1,25-dihydroxyvitamin D3 response element [NT] ID NO:4) from the mouse osteopontin gene (Ferrara et al. J. Biol. Chem. 269:2971 (1994)) ligated into the reporter plasmid ΔMTV-Luc (Heyman et al. in Cell 68:397 (1992)), and 0.3 μg of the plasmid pGEM3Z (Pharmacia, Inc.) as carrier DNA to bring the final concentration of DNA to 1.0 μg per well. After six hours of transfection, cells were fed with growth medium containing charcoal extracted FBS at a final concentration of 10%. […] Luciferase activity was measured as described above. This experimental system allowed a convenient method of monitoring and quantitating 1,25-dihydroxyvitamin D3-dependent gene expression."}, "[3]": {"system": "TPA-induced AP-1 activity", "assay": "Example 15: anti-AP-1 activity, Str-AP1-CAT in HeLa cells", "type": "cell-based", "method": "HeLa cells were transfected with 1 μg of Str-AP1-CAT using LIPOFECTAMINE according to the method described by Nagpal et al. in J. Biol. Chem. 270:923 (1995). Transfected cells were treated with AGN 193109 alone (10^−9 to 10^−7 M), 1,25-dihydroxyvitamin D3 alone (10^−12 to 10^−7 M) or 1,25-dihydroxyvitamin D3 (10^−12 to 10^−7 M) in the presence of 10^−8 M AGN 193109."}, "RARγ [4]": {"target": "T1, RARγ", "assay": "Example 16: transactivation, MTV-TREp-Luc in HeLa cells", "type": "cell-based"}, "CaSki cells": {"system": "CaSki cells", "assay": "Example 18: proliferation of CaSki cells", "type": "cell-based", "settings": "10^−6 M AGN 193109, no added retinoid agonist", "method": "EGF was added to the retinoid treated cultures to give a final concentration of 20 ng/ml. […] The media was replaced with fresh media and each of the two retinoid compounds, as appropriate, every day. Cell numbers were determined using a COULTER counter as described above."}, "[5]": {"system": "MRP-8 expression in primary foreskin keratinocytes", "assay": "Example 20: MRP-8 expression in keratinocytes (RT-PCR)", "type": "cell-based, human", "settings": "AGN 191183 10^−7 M or AGN 193109 10^−6 M, 3 days", "source_text": "Primary foreskin keratinocytes were isolated according to the procedure described by Nagpal et al. in J. Biol. Chem. 270:923 (1995) and cultured in keratinocyte growth medium (KGM) that was purchased from Clonetics. […] The mRNA was reverse transcribed into cDNA which then served as the template in a PCR amplification protocol using primers specific for either the glyceraldehyde phosphate dehydrogenase (GAPDH) housekeeping gene or MRP-8. The GAPDH primers had the sequences [NT] ID NO:6) and [NT] ID NO:7). The MRP-8 primers had the sequences [NT] ID NO:8) and [NT] ID NO:9). An aliquot from the MRP-8 amplification reaction (10 μl) was removed after every cycle of PCR amplification starting from 12 cycles and ending at 21 cycles. Similarly, an aliquot of the GAPDH amplification reaction was removed after every PCR cycle starting at 15 cycles and ending at 24 cycles. […] The staining intensity of the amplification products served as a quantitative measure of the amount of starting MRNA specific for the given primer set."}, "RARβ": {"target": "T2, RARβ (Homo sapiens, UniProt P10826)", "T2 sequence (P10826 1-448 isoform P10826-2)": "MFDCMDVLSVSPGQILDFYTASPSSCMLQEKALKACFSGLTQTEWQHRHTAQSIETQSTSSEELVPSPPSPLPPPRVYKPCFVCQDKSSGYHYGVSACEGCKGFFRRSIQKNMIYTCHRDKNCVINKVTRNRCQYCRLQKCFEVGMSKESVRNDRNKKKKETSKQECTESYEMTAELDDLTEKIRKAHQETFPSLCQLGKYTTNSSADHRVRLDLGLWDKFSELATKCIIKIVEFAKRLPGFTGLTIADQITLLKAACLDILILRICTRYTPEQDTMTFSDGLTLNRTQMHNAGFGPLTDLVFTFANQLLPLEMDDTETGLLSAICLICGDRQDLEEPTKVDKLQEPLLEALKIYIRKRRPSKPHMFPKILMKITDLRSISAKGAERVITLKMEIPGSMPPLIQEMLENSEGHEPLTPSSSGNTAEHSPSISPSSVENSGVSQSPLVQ", "assay": "[3H]-ATRA displacement assay, baculovirus expressed receptor", "type": "binding", "set-up": "made in house; host or cells: baculovirus expression system", "settings": "Table 11"}}, "data": [{"smiles": "Cc1ccc(C2=CCC(C)(C)c3ccc(C#Cc4ccc(C(=O)O)cc4)cc32)cc1", "note": "[Compound 60, 4-[(5,6-dihydro-5,5-dimethyl-8-(4-methylphenyl)-2-naphthalenyl)ethynyl]benzoic acid]", "values": [{"measurement": "inhibition of luciferase activity relative to ATRA alone", "setting": "RARγ [1]", "result": "greater than 50%"}, {"measurement": "increase in activity of 1,25-dihydroxyvitamin D3", "setting": "[2]", "result": "approximately 10 fold"}, {"measurement": "anti-AP-1 activity", "setting": "[3]; AGN 193109 alone, 10^−9 to 10^−7 M", "result": "no detectable anti-AP-1 activity"}, {"measurement": "anti-AP-1 activity of 1,25-dihydroxyvitamin D3", "setting": "[3]; in the presence of 10^−8 M AGN 193109", "result": "anti-AP-1 activity was detectable at 10^−10 and 10^−9 M 1,25-dihydroxyvitamin D3"}, {"measurement": "inhibition of the response to 10^−9 M AGN 191183", "setting": "RARγ [4]; 10^−9 M AGN 193109, HeLa cells, preliminary experiments", "result": "relatively ineffective"}, {"measurement": "luciferase activity", "setting": "RARγ [4]; AGN 193109 10^−11 and 10^−10 M with AGN 191183 10^−10 or 10^−9 M", "result": "stimulation of luciferase activity over that of AGN 191183 alone"}, {"measurement": "proliferation", "setting": "CaSki cells", "result": "inhibited proliferation of the CaSki cervical epithelial cell line"}, {"measurement": "MRP-8 mRNA expression", "setting": "[5]", "result": "repressed MRP8 expression"}, {"measurement": "Kd", "setting": "RARβ", "result": 2, "unit": "nM"}]}]}
